# Experiments:
# giant foxtail = assay: Test B pre/postemergence giant foxtail; type: in vivo, Setaria faberii
# Method in brief: (§1)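 Herbicidal effect was estimated by eye on a ten-point control scale after plants spent twelve to sixteen days in a greenhouse following soil or foliar treatment. Foliar sprays targeted plants at one to four leaves; all doses were formulated in a non-phytotoxic solvent with surfactant.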
# morningglory = assay: Test B pre/postemergence morningglory; type: in vivo, Ipomoea hederacea
# Method in brief: as §1
# rice = assay: Test B flood test rice; type: in vivo, Oryza sativa; conditions: for Plant response rating, Rice (0 to 10 scale, 0 is no effect, 10 is complete control) / Rice plant response rating (0 to 10 scale, 0 is no effect, 10 is complete control): visual evaluation after twelve to sixteen days; for Rice plant response rating (0 to 10 scale, 0 is no effect, 10 is complete control): under heading Pre-emergence
# Method in brief: (§2)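 Plants were grown to the 2-leaf stage before treatment with test chemical, then held in a greenhouse for twelve to sixteen days. Injury was visually rated against untreated controls on a 0–10 scale, where 0 is no effect and 10 is complete control.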
# duck salad = assay: Test B flood test duck salad; type: in vivo, Heteranthera limosa; conditions: for Plant response rating, Ducksalad (0 to 10 scale, 0 is no effect, 10 is complete control) / Ducksalad plant response rating (0 to 10 scale, 0 is no effect, 10 is complete control): visual evaluation after twelve to sixteen days; for Ducksalad plant response rating (0 to 10 scale, 0 is no effect, 10 is complete control): under heading Pre-emergence
# Method in brief: as §2
# [1] = Postemergence, Rate 125 g/ha, scale of 0 to 10 where 0 is no effect and 10 is complete control
# [2] = Postemergence, Rate 250 g/ha, scale 0 to 10, 0 no effect, 10 complete control
# [3] = Preemergence, Rate 62 g/ha, scale 0 to 10 (0 no effect, 10 complete control)
# [4] = Preemergence, Rate 125 g/ha, scale 0 to 10 (0 no effect, 10 complete control)
# [5] = Preemergence, Rate 250 g/ha, scale of 0 to 10 where 0 is no effect and 10 is complete control
# [6] = Rate 62 g/ha, Postemergence, scale of 0 to 10 where 0 is no effect and 10 is complete control
# [7] = Rate 500 g/ha, Postemergence, scale 0 to 10, 0 no effect, 10 complete control
# [8] = Postemergence (flood test species), Rate 125 g/ha, scale of 0 to 10 where 0 is no effect and 10 is complete control
# [9] = Rate 62 g/ha, Postemergence section, flood test species, scale of 0 to 10 where 0 is no effect and 10 is complete control
# [10] = Rate 500 g/ha, listed under Postemergence (flood test species), scale 0 to 10, 0 no effect, 10 complete control
# [11] = flood test, listed under Postemergence, Rate 250 g/ha, scale 0 to 10, 0 no effect, 10 complete control
# [12] = Postemergence, Rate 1000 g/ha, scale 0 to 10 (0 no effect, 10 complete control)
# [13] = Preemergence, Rate 500 g/ha, scale 0 (no effect) to 10 (complete control)
# [14] = Rate 125 g/ha, Postemergence, scale 0 to 10, 0 no effect, 10 complete control
# [15] = Rate 500 g/ha, Postemergence, 0 to 10 scale (0 no effect, 10 complete control)
# [16] = Rate 1000 g/ha, Preemergence, scale 0 to 10 (0 no effect, 10 complete control)
# [17] = Rate 125 g/ha, Postemergence section (flood test species), scale 0 to 10, 0 no effect, 10 complete control
# [18] = Rate 500 g/ha, Postemergence section of Table B, 0 to 10 scale (0 no effect, 10 complete control)
# [19] = Postemergence, Rate 125 g/ha, scale 0 to 10, 0 is no effect, 10 is complete control
# [20] = Preemergence, Rate 62 g/ha, scale of 0 to 10 where 0 is no effect and 10 is complete control
# [21] = Preemergence, Rate 500 g/ha, scale of 0 to 10 where 0 is no effect and 10 is complete control
# [22] = Rate 62 g/ha, Postemergence, scale 0 to 10 (0 no effect, 10 complete control)
# [23] = Rate 62 g/ha, headed Pre-emergence (flood test species), scale 0 to 10 (0 no effect, 10 complete control)
# [24] = Rate 125 g/ha, Pre-emergence, flood test species, scale 0 to 10 where 0 is no effect and 10 is complete control
# [25] = Rate 250 g/ha, Pre-emergence, flood-test species, scale 0 to 10, 0 is no effect, 10 is complete control
# [26] = Rate 500 g/ha, Pre-emergence, flood test species, scale 0 to 10 (0 no effect, 10 complete control)
# [27] = Rate 125 g/ha, Postemergence, scale of 0 to 10 where 0 is no effect and 10 is complete control
# [28] = Rate 125 g/ha, Preemergence, scale of 0 to 10 where 0 is no effect and 10 is complete control
# [29] = Rate 250 g/ha, Postemergence, scale of 0 to 10 where 0 is no effect and 10 is complete control
# [30] = Pre-emergence, Rate 1000 g/ha, scale 0 to 10 (0 no effect, 10 complete control)
# [31] = Postemergence, Rate 62 g/ha, scale 0 to 10, 0 is no effect, 10 is complete control
# [32] = Postemergence, Rate 250 g/ha, scale of 0 to 10, 0 is no effect, 10 is complete control
# [33] = Postemergence, Rate 500 g/ha, scale of 0 to 10 where 0 is no effect and 10 is complete control
# [34] = Preemergence, Rate 125 g/ha, scale of 0 to 10 where 0 is no effect and 10 is complete control
# [35] = Preemergence, Rate 250 g/ha, scale 0 to 10 (0 no effect, 10 complete control)
# [36] = Rate 62 g/ha, flood test species, Pre-emergence
# [37] = Rate 125 g/ha, flood test species
# [38] = Rate 250 g/ha, Pre-emergence (flood test species), scale 0 to 10, 0 is no effect, 10 is complete control
# [39] = Rate 500 g/ha, Pre-emergence section of Table B, 0 to 10 scale (0 no effect, 10 complete control)
# [40] = Postemergence, Rate 250 g/ha, scale 0 to 10
# [41] = Preemergence, Rate 250 g/ha, scale 0 to 10, 0 is no effect, 10 is complete control
# [42] = Preemergence, Rate 500 g/ha, scale 0 to 10, 0 is no effect, 10 is complete control
# [43] = Rate 125 g/ha, Postemergence, scale 0 to 10, 0 is no effect, 10 is complete control
compound,measurement,setting,value
CCc1noc(CC)c1-n1c(=O)on(C(=O)N(c2ccc(F)cc2)C(C)C)c1=O [Compound 102],Giant foxtail plant response rating,giant foxtail; [1],0
same,Giant foxtail plant response rating,giant foxtail; [2],0
same,Giant foxtail plant response rating,giant foxtail; [3],2
same,"Plant response rating, Giant foxtail",giant foxtail; [4],4
same,"Plant response rating, Giant foxtail",giant foxtail; [5],9
same,Giant foxtail plant response rating,giant foxtail; [6],0
same,Giant foxtail plant response rating,giant foxtail; [7],2
same,Morningglory plant response rating,morningglory; [1],0
same,Morningglory plant response rating,morningglory; [2],1
same,Morningglory plant response rating,morningglory; [3],0
same,"Plant response rating, Morningglory",morningglory; [4],0
same,"Plant response rating, Morningglory",morningglory; [5],0
same,Morningglory plant response rating,morningglory; [6],0
same,Morningglory plant response rating,morningglory; [7],3
same,Rice plant response rating,rice; [8],0
same,Rice plant response rating,rice; [9],0
same,"Plant response rating, Rice","rice; Rate 250 g/ha, Postemergence (flood test), scale 0 to 10, 0 is no effect, 10 is complete control",0
same,Rice plant response rating,rice; [10],0
same,Ducksalad plant response rating,duck salad; [8],0
same,Ducksalad plant response rating,duck salad; [9],0
same,Ducksalad plant response rating,duck salad; [10],0
same,Ducksalad plant response rating,duck salad; [11],0
CC(C)N(C(=O)n1oc(=O)n(-c2ccc(OC(F)(F)F)cc2)c1=O)C1=CCOCC1 [Compound 13],Giant foxtail plant response rating,giant foxtail; [2],2
same,Giant foxtail plant response rating,giant foxtail; [12],7
same,"Plant response rating, Giant foxtail",giant foxtail; [4],3
same,"Plant response rating, Giant foxtail",giant foxtail; [5],8
same,Giant foxtail plant response rating,giant foxtail; [13],8
same,Giant foxtail plant response rating,giant foxtail; [14],0
same,Giant foxtail plant response rating,giant foxtail; [15],7
same,"Plant response rating, Giant foxtail",giant foxtail; [16],8
same,Morningglory plant response rating,morningglory; [2],0
same,Morningglory plant response rating,morningglory; [12],0
same,"Plant response rating, Morningglory",morningglory; [4],0
same,"Plant response rating, Morningglory",morningglory; [5],0
same,Morningglory plant response rating,morningglory; [13],0
same,Morningglory plant response rating,morningglory; [14],0
same,Morningglory plant response rating,morningglory; [15],0
same,"Plant response rating, Morningglory",morningglory; [16],2
same,Rice plant response rating,rice; [12],0
same,Rice plant response rating,rice; [17],0
same,Rice plant response rating,rice; [18],0
same,Rice plant response rating,rice; [11],0
same,Ducksalad plant response rating,duck salad; [12],0
same,Ducksalad plant response rating,duck salad; [17],0
same,Ducksalad plant response rating,duck salad; [18],0
same,Ducksalad plant response rating,duck salad; [11],0
CC(C)N(C(=O)n1oc(=O)n(-c2ccc3ccccc3c2)c1=O)c1ccc(F)cc1F [Compound 335],"Plant response rating, Giant foxtail",giant foxtail; [19],0
same,Giant foxtail plant response rating,giant foxtail; [20],2
same,Giant foxtail plant response rating (0 to 10 scale),"giant foxtail; Preemergence, Rate 125 g/ha",4
same,Giant foxtail plant response rating,giant foxtail; [5],10
same,Giant foxtail plant response rating,giant foxtail; [21],10
same,Giant foxtail plant response rating,giant foxtail; [22],0
same,"Plant response rating, Giant foxtail",giant foxtail; [7],0
same,"Plant response rating, Morningglory",morningglory; [19],0
same,Morningglory plant response rating,morningglory; [20],0
same,Morningglory plant response rating (0 to 10 scale),"morningglory; Preemergence, Rate 125 g/ha",0
same,Morningglory plant response rating,morningglory; [5],0
same,Morningglory plant response rating,morningglory; [21],0
same,Morningglory plant response rating,morningglory; [22],0
same,"Plant response rating, Morningglory",morningglory; [7],0
same,Rice plant response rating,rice; [23],0
same,Rice plant response rating,rice; [24],0
same,Rice plant response rating,rice; [25],0
same,Rice plant response rating,rice; [26],0
same,Ducksalad plant response rating,duck salad; [23],0
same,Ducksalad plant response rating,duck salad; [24],0
same,Ducksalad plant response rating,duck salad; [25],0
same,Ducksalad plant response rating,duck salad; [26],0
C=CCn1c(=O)on(C(=O)N(c2ccc(F)cc2)C(C)C(=O)OCC)c1=O (stereo not shown) [Compound 279],Giant foxtail plant response rating,giant foxtail; [12],4
same,Giant foxtail plant response rating,giant foxtail; [5],6
same,"Plant response rating, Giant foxtail",giant foxtail; [21],7
same,Giant foxtail plant response rating,giant foxtail; [27],0
same,Giant foxtail plant response rating,giant foxtail; [28],3
same,"Plant response rating, Giant foxtail",giant foxtail; [29],0
same,Giant foxtail plant response rating,giant foxtail; [7],1
same,"Plant response rating, Giant foxtail",giant foxtail; [16],7
same,Morningglory plant response rating,morningglory; [12],3
same,Morningglory plant response rating,morningglory; [5],0
same,"Plant response rating, Morningglory",morningglory; [21],0
same,Morningglory plant response rating,morningglory; [27],1
same,Morningglory plant response rating,morningglory; [28],0
same,"Plant response rating, Morningglory",morningglory; [29],2
same,Morningglory plant response rating,morningglory; [7],2
same,"Plant response rating, Morningglory",morningglory; [16],0
same,Rice plant response rating,rice; [30],0
same,Rice plant response rating,rice; [24],0
same,Rice plant response rating,rice; [25],0
same,Rice plant response rating,rice; [26],0
same,Ducksalad plant response rating,duck salad; [30],0
same,Ducksalad plant response rating,duck salad; [24],0
same,Ducksalad plant response rating,duck salad; [25],0
same,Ducksalad plant response rating,duck salad; [26],0
CCOC(Cn1c(=O)on(C(=O)N(c2ccccc2)C(C)C)c1=O)OCC [Compound 632],"Plant response rating, Giant foxtail",giant foxtail; [31],3
same,"Plant response rating, Giant foxtail",giant foxtail; [1],7
same,Giant foxtail plant response rating,giant foxtail; [32],8
same,"Plant response rating, Giant foxtail",giant foxtail; [33],9
same,Giant foxtail plant response rating,giant foxtail; [3],8
same,Giant foxtail plant response rating,giant foxtail; [34],10
same,"Plant response rating, Giant foxtail",giant foxtail; [35],10
same,"Plant response rating, Giant foxtail",giant foxtail; [21],10
same,"Plant response rating, Morningglory",morningglory; [31],1
same,"Plant response rating, Morningglory",morningglory; [1],1
same,Morningglory plant response rating,morningglory; [32],2
same,"Plant response rating, Morningglory",morningglory; [33],10
same,Morningglory plant response rating,morningglory; [3],0
same,Morningglory plant response rating,morningglory; [34],0
same,"Plant response rating, Morningglory",morningglory; [35],4
same,"Plant response rating, Morningglory",morningglory; [21],5
same,"Plant response rating, Rice (0 to 10 scale, 0 is no effect, 10 is complete control)",rice; [36],0
same,"Rice plant response rating (0 to 10 scale, 0 is no effect, 10 is complete control)",rice; [37],0
same,Rice plant response rating,rice; [38],0
same,Rice plant response rating,rice; [39],0
same,"Plant response rating, Ducksalad (0 to 10 scale, 0 is no effect, 10 is complete control)",duck salad; [36],0
same,"Ducksalad plant response rating (0 to 10 scale, 0 is no effect, 10 is complete control)",duck salad; [37],0
same,Ducksalad plant response rating,duck salad; [38],0
same,Ducksalad plant response rating,duck salad; [39],0
CC(C)N(C(=O)n1oc(=O)n(CCC[Si](C)(C)C)c1=O)c1ccc(F)cc1 [Compound 461],Giant foxtail plant response rating,giant foxtail; [40],0
same,Giant foxtail plant response rating,giant foxtail; [33],0
same,"Plant response rating, Giant foxtail",giant foxtail; [20],0
same,"Plant response rating, Giant foxtail",giant foxtail; [34],0
same,Giant foxtail plant response rating,giant foxtail; [41],0
same,Giant foxtail plant response rating,giant foxtail; [42],3
same,Giant foxtail plant response rating,giant foxtail; [22],0
same,Giant foxtail plant response rating,giant foxtail; [43],0
same,Morningglory plant response rating,morningglory; [40],7
same,"Plant response rating, Morningglory",morningglory; [20],0
same,"Plant response rating, Morningglory",morningglory; [34],0
same,Morningglory plant response rating,morningglory; [41],0
same,Morningglory plant response rating,morningglory; [42],0
same,Morningglory plant response rating,morningglory; [22],3
same,Morningglory plant response rating,morningglory; [43],7
same,"Plant response rating, Rice (0 to 10 scale, 0 is no effect, 10 is complete control)",rice; [36],0
same,"Rice plant response rating (0 to 10 scale, 0 is no effect, 10 is complete control)",rice; [37],0
same,Rice plant response rating,rice; [38],0
same,Rice plant response rating,rice; [26],0
same,"Plant response rating, Ducksalad (0 to 10 scale, 0 is no effect, 10 is complete control)",duck salad; [36],0
same,"Ducksalad plant response rating (0 to 10 scale, 0 is no effect, 10 is complete control)",duck salad; [37],0
same,Ducksalad plant response rating,duck salad; [38],0
same,Ducksalad plant response rating,duck salad; [26],0

# Source: patent publication US6737383B1, “Herbicidal oxadiazolidines” (priority 1999, dated 2004)
